Data published in US6559139B1, “Combination chemotherapy” (University of Pittsburgh of the Commonwealth System of …, priority 1997, dated 2003).

Key:
[1] = hypercalcemia in treated SCCVII/SF tumor-bearing animals; type: in vivo, C3H/HeJ mice
[2] = system: EGF, PDGF, and IGF1 growth factor receptors; assay: Western Blot of growth factor receptors in SCC cells; type: cell-based; conditions: 10 nM 1,25D3; vs untreated cells
Method: (§1) SCC cells were treated in vitro with 10 nM 1,25D3, and untreated cells served as a control. The level of phosphorylated MAPK was assessed at 24 and 48 hours post treatment. Using Western Blot analysis, the amounts of MAPK, MEK (the kinase responsible for phosphorylating MAPK), MKP-1 (a MAPK-specific phosphatase), and growth factor receptors (EGF, PDGF, and IGF1 growth factor receptors) were assessed as well. Additionally, the activity level of MEK was assessed by quantitative in vitro kinase assays.

[3] = system: SCCVII/SF tumor; assay: in vivo excision clonogenic tumor cell survival assay; parameters: species or system C3H/HeJ mice; conditions: for enhancement of clonogenic cell kill: p<0.001 ANOVA
Method: The effect of 1,25D3 or Ro23-7553 alone and/or in combination with various cytotoxic agents on tumor cells in vivo was determined by a modification of the in vivo excision clonogenic tumor cell survival assay (Johnson et al., Cancer Chemother. Pharmacol., 32, 339-46 (1993)). Briefly, SCCVII/SF tumor bearing animals at 14 days post implantation were treated i.p. for 3 days with 1,25D3 or Ro23-7553 at either 0.5 mg/kg body weight/day or at varying doses of 0.03125-0.5 mg/kg body weight/day. […] After 24 hours, aliquots of minced tumor were enzymatically dissociated for 60 min at room temperature with a mixture of type I collagenase (37.5 mg/ml), DNAse (55 mg/ml) and EDTA (1%). Viable tumor cells (determined by trypan blue staining) were then plated at various dilutions. After 7 days incubation, colonies were counted, and numbers of clonogenic cells per gram of tumor were counted. The mean±standard deviation (SD) cell yield, cloning efficiency, and number of clonogenic cells for control (no treatment) tumors (n=40) averaged 139.4±38.2×10^6 viable tumor cells/g tumor, 27.0±0.56%, and 37.5±13.3×10^6 clonogenic tumor cells/g tumor, respectively. The surviving fraction per gram of tumor is defined as the number of clonogenic tumor cells per gram of treated tumor divided by the number of clonogenic tumor cells per gram of control (untreated) tumor. This assay is an accurate measure of in vivo anti-tumor activity; a surviving fraction less than 0.1 correlates with an actual decrease in tumor volume and an increase in tumor regrowth delay (Braunschweiger et al., Cancer Res., 48, 6011-16 (1988); Braunschweiger et al., Cancer Res., 51, 5454-60 (1991)).

[4] = system: MKP-1 (a MAPK-specific phosphatase); assay: Western Blot of MKP-1 in SCC cells; type: cell-based; conditions: 10 nM 1,25D3; vs untreated cells
Method: as §1

[5] = serum calcium levels in normal mice treated with 1,25D3 with or without zoledronate
Method: Normal C3H/HeJ mice were pretreated with 10 μg/kg body weight zoledronate and then treated with 0.25 μg 1,25D3 once a day for three days. Control animals received 1,25D3 alone, and one group of animals received only zoledronate. Following the last 1,25D3 treatment, blood was collected at 0, 24 and 48 hours from each mouse, and the serum calcium levels were measured.

[6] = system: MEK; assay: quantitative in vitro kinase assay of MEK activity; type: cell-based; conditions: 10 nM 1,25D3; vs untreated cells
Method: as §1

[7] = system: SCCVII/SF cells; assay: in vitro clonogenic assay; type: cell-based, murine; conditions: for enhancement of clonogenic cell kill: p<0.001 ANOVA
Method: The in vitro cytotoxicity of drug on tumor cells was determined via the in vitro clonogenic assay (McElwain et al., Mol. Cell. Diff., 3, 31-50 (1995)) with minor modifications as described herein. Briefly, murine SCCVII/SF cells were pre-treated with either 2 nM or 4 nM 1,25D3 or Ro23-7553. […] After 48 hours incubation with 1,25D3 or Ro23-7553, cells were treated for 2 hours with varying concentrations of cytotoxic agent, washed with RPMI 1640 plus FCS, and plated in various dilutions in 6-well tissue culture plates. Following a 7 day incubation at 37° C. in 5% CO2, monolayers were washed with saline, fixed with 100% methanol, and stained with 10% Giemsa; colonies were counted under light microscopy. The surviving fraction was calculated by dividing the cloning efficiency of treated cells by the cloning efficiency of untreated controls.

[8] = system: SCCVII/SF cells; conditions: 24 hr, 48 hr and 7 day incubation times; cited from earlier work
[9] = system: MEK; assay: Western Blot of MEK protein in SCC cells; type: cell-based; conditions: 10 nM 1,25D3; vs untreated cells
Method: as §1

[10] = system: MAPK; assay: Western Blot of phosphorylated MAPK and MAPK in SCC cells; type: cell-based; conditions: 10 nM 1,25D3, vs untreated cells
Method: as §1

[11] = system: SCCVII/SF tumor; assay: tumor regrowth assay (delay of tumor growth); type: in vivo, C3H/HeJ mice; conditions: for fractional tumor volume: vs either agent alone; for Tumor Regrowth Delay: mean±SD of the difference in time for treated and control tumors to reach 4× pretreatment size, Ro23-7553 continuous, cisplatin 6 mg/kg i.p.
Method: SCCVII/SF tumor cells (5×10^5) were inoculated s.c. into the flank of the leg of C3H/HeJ mice. On day 9 post implantation, as the tumors were palpable (approximately 5×5 mm), animals were randomized for treatment with low dose i.p. […] After 7 days, 6 mg/kg body weight cytotoxic agent was injected i.p. Control animals received either treatment alone or no treatment. Control (no treatment) animals were given injection of vehicle (PBS) alone or sham pumps were implanted. Tumor growth was assessed by measuring the tumor diameter with calipers three times weekly. […] Post-treatment volumes were expressed as a fraction of pretreatment volume at the time of initial treatment. Tumor regrowth delay was calculated as the mean±standard deviation of the difference in time for treated and control tumor volumes to reach 4 times the pretreatment volume.

[12] = clinical carboplatin / 1,25D3 schedule: carboplatin AUC and myelosuppression; type: in vivo, human; conditions: for mean AUC of carboplatin: dose calculated to achieve AUC=5, ±1.3
Method: Patients with malignant tumors were subject to a treatment regimen involving carboplatin and 1,25D3, but 48 hours prior to treatment, each patient was placed on a low calcium diet (250-300 mg/48 hr) and maintained on that diet for at least 7 days.
According to this regimen, each cycle lasts four weeks. For successive cycles, the dosage of 1,25D3 is increased by 30%. For the first two cycles, the patients were divided into two groups as follows:
Group 1. On day 1, this group of patients was given carboplatin (intravenously as a 30-minute infusion in 100 ml of carrier) at a dose calculated to achieve AUC=5. 24 hours later, a plasma sample was taken to determine carboplatin AUC, and the patients were placed on a three-day regimen of subcutaneous 1,25D3 per the schedule indicated in Table 2.
Group 2. On day 1, this group of patients was placed on a three-day regimen of subcutaneous 1,25D3. On day 3, the patients were given carboplatin at a dose calculated to achieve AUC=5. 24 hours later, a plasma sample was taken to determine carboplatin AUC.
Following the first cycle, the groups switched between pretreatment and post treatment. For the third and subsequent cycles in this treatment, the patients were placed on a three-day regimen of subcutaneous 1,25D3. On day 3, the patients were given carboplatin. at a dose calculated to achieve AUC=5. 24 hours later, a plasma sample was taken to determine carboplatin AUC.
Following the first two cycles, patients were assessed to determine the effect on carboplatin AUC by pretreatment vs. post treatment with 1,25D3.

SMILES: C=C1/C(=C\C=C2/CCC[C@]3(C)[C@@H]([C@H](C)CCCC(C)(C)O)CC[C@@H]23)C[C@@H](O)C[C@@H]1O [1,25D3, 1,25-dihydroxycholecalciferol]
- hypercalcemia ([1]; 1,25D3 0.2 μg/day 3 days with paclitaxel): No animals became hypercalcemic
- hypercalcemia ([1]; any of the 1,25D3 doses tested, with carboplatin 50 mg/kg): No animals became hypercalcemic
- amounts of EGF, PDGF, and IGF1 growth factor receptors [2]: significantly higher amounts
- enhancement of clonogenic cell kill ([3]; 1,25D3 0.2 μg/day i.p. 3 days, varying doses of paclitaxel on day 3, vs paclitaxel alone): significant enhancement of clonogenic cell kill
- enhancement of clonogenic cell kill ([3]; 1,25D3 0.5 mg/kg body weight/day i.p. 3 days, carboplatin 25-100 mg/kg on day 3, vs either alone): significant enhancement of clonogenic cell kill
- enhancement of clonogenic cell kill ([3]; 1,25D3 varying doses i.p. 3 days, carboplatin 50 mg/kg on day 3, vs carboplatin alone): significant enhancement of clonogenic cell even at the lowest doses of 1,25D3
- amount of MKP-1 [4]: higher amounts of MKP-1
- serum calcium levels ([5]; 24 hours after last 1,25D3 treatment (0.25 μg once a day, three days)): 17.2 ± 1.1 mg/dL
- serum calcium levels ([5]; 48 hours after last 1,25D3 treatment (0.25 μg once a day, three days)): 16.5 ± 1.1 mg/dL
- MEK activity profile [6]: not significantly different
- enhancement of clonogenic cell kill over paclitaxel alone ([7]; concurrent administration of 1,25D3 and paclitaxel): did not result in an enhancement of clonogenic cell kill
- enhancement of clonogenic cell kill ([7]; pretreatment with 2 nM 1,25D3 for 48 hours, then carboplatin, vs carboplatin alone or concurrent): significantly enhanced clonogenic cell kill
- enhancement of clonogenic cell kill ([7]; pretreatment with 1,25D3, then paclitaxel): significantly enhanced clonogenic cell kill
- anti-proliferative effects [8]: anti-proliferative effects are observed
- amount of MEK protein [9]: slightly less MEK protein
- level of phosphorylated MAPK ([10]; 24 and 48 hours): less phosphorylated MAPK
- amount of MAPK protein [10]: not affected
- fractional tumor volume ([11]; 0.2 μg/mouse 1,25D3 continuously for two to eight days, then paclitaxel 40 mg/kg i.p.): significant decrease in fractional tumor volume

SMILES: N.N.[Cl][Pt][Cl] [Cisplatin, cisplatin]
- Tumor Regrowth Delay [11]: 4.4 ± 0.3

SMILES: C=C1/C(=C\C=C2/CCC[C@]3(C)C([C@H](C)CC#CC(C)(C)O)=CC[C@@H]23)C[C@@H](O)C[C@@H]1O [Ro23-7553, 1,25-dihydroxy-16-ene-23-yne-cholecalciferol]
- hypercalcemia ([1]; any of the Ro23-7553 doses (0.03125-0.5 mg/kg/day, 3 days) with cisplatin): No animals in either experimental approach became hypercalcemic
- enhancement of clonogenic cell kill ([3]; Ro23-7553 0.5 mg/kg body weight/day i.p. 3 days, varying doses of cisplatin on day 3, vs cisplatin or Ro23-7553 alone): significant enhancement of clonogenic cell kill
- enhancement of cisplatin-mediated tumor cell kill ([3]; Ro23-7553 0.03125-0.5 mg/kg body weight/day 3 days, cisplatin 6 mg/kg on day 3, vs either alone, p<0.01 ANOVA): significantly enhancing cisplatin-mediated tumor cell kill even at the lowest doses tested
- enhancement of clonogenic cell kill ([7]; pretreatment with 2 nM and 4 nM Ro23-7553, then 0.2-0.8 μg/ml cisplatin, vs cisplatin alone or concurrent administration): significantly enhanced clonogenic cell kill
- anti-proliferative effects [8]: anti-proliferative effects are observed
- fractional tumor volume ([11]; Ro23-7553 administered continuously, then cisplatin 6 mg/kg i.p., p<0.001 ANOVA): significant decrease in fractional tumor volume
- Tumor Regrowth Delay [11]: 1.8 ± 0.8

SMILES: N.N.O=C([O-])C1(C(=O)[O-])CCC1.[Pt+2] [carboplatin]
- mean AUC of carboplatin ([12]; carboplatin D1): 7.8 µg·h/mL
- mean AUC of carboplatin ([12]; carboplatin D3): 6.7 µg·h/mL
- myleosuppression ([12]; carboplatin followed by adjunctive 1,25D3, each patient): consistently less
- AUC of carboplatin when pretreated with 1,25D3 vs carboplatin given first ([12]; each patient, first two cycles): higher in each patient

SMILES: O=P(O)(O)C(O)(Cn1ccnc1)P(=O)(O)O [zoledronate]
- dehydration, piloerection, and cachexia attributable to hypercalcemia ([5]; vs control animals (1,25D3 alone)): less dehydration, piloerection, and cachexia
